Legend:
large (Lg) crabgrass = assay: Test A preemergence; format: in vivo, Digitaria sanguinalis
Outline: (§1)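 Pre- and postemergence greenhouse screen. Soil: loam + sand. Spray carrier: solvent mixture, non-phytotoxic, with surfactant. Post timing at 1–2 leaves, height 2–10 cm. Readout: visual injury on a 0–100 scale roughly 10 days after application, untreated plants as reference.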

velvetleaf [1] = assay: Test A preemergence; format: in vivo, Abutilon theophrasti
Outline: as §1

corn [2] = assay: Test A preemergence; format: in vivo, Zea mays
Outline: as §1

barnyardgrass = assay: Test A postemergence; format: in vivo, Echinochloa crus-galli; settings: 0 to 100 scale where 0 is no effect and 100 is complete control
Outline: as §1

giant foxtail [3] = assay: Test A postemergence; format: in vivo, Setaria faberii; settings: 0 to 100 scale where 0 is no effect and 100 is complete control
Outline: as §1

morningglory [4] = assay: Test A postemergence; format: in vivo, Ipomoea spp.; settings: 0 to 100 scale where 0 is no effect and 100 is complete control
Outline: as §1

corn [5] = assay: Test A postemergence; format: in vivo, Zea mays; settings: 0 to 100 scale where 0 is no effect and 100 is complete control
Outline: as §1

Heteranthera limosa = assay: Test B flooded paddy test; format: in vivo; settings: Flood, 250 g ai/ha; 0 to 100 scale where 0 is no effect and 100 is complete control
Outline: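 Flooded to 3 cm at the 2-leaf stage, pots received compound through the paddy water and were kept at that depth under greenhouse conditions. After 13–15 days, effect was rated by eye relative to controls, 0 = none and 100 = complete control.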

corn [6] = assay: Test C postemergence; format: in vivo, Zea mays
Outline: (§2)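 Whole-plant greenhouse test with surfactant-containing solvent formulation, applied preemergence to sown loam–sand pots or postemergence to 2–18 cm plants. Scored by eye 13 to 15 days on, 0–100 scale.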

giant foxtail [7] = assay: Test C postemergence; format: in vivo, Setaria faberii
Outline: as §2

johnsongrass = assay: Test C postemergence; format: in vivo, Sorghum halepense
Outline: as §2

morningglory [8] = assay: Test C postemergence; format: in vivo, Ipomoea coccinea
Outline: as §2

pigweed = assay: Test C postemergence; format: in vivo, Amaranthus retroflexus
Outline: as §2

oilseed rape = assay: Test C postemergence; format: in vivo, Brassica napus
Outline: as §2

waterhemp = assay: Test C postemergence; format: in vivo, Amaranthus rudis
Outline: as §2

velvetleaf [9] = assay: Test C postemergence; format: in vivo, Abutilon theophrasti
Outline: as §2

[10] = 500 g ai/ha, 0 to 100 scale where 0 is no effect and 100 is complete control
[11] = 16 g ai/ha, postemergence, 0 is no effect, 100 is complete control
[12] = 31 g ai/ha, postemergence, visual rating, scale 0 to 100 (0 no effect, 100 complete control), 13 to 15 days
[13] = 125 g ai/ha, postemergence, visual rating, scale 0 to 100 (0 no effect, 100 complete control)
[14] = Postemergence, 62 g ai/ha, scale 0 to 100 (0 no effect, 100 complete control), 13 to 15 days

## Fc1cnc(Oc2ccccc2-n2cc(C(F)F)cn2)nc1 [Compound 228]
Large (Lg) crabgrass; 125 g ai/ha
  Crabgrass, Large plant response rating (0 to 100 scale): 90
Large (Lg) crabgrass; [10]
  Crabgrass, Large plant response rating: 100
Velvetleaf [1]; 125 g ai/ha
  Velvetleaf plant response rating (0 to 100 scale): 70
Velvetleaf [1]; [10]
  Velvetleaf plant response rating: 100
Corn [2]; 125 g ai/ha
  Corn plant response rating (0 to 100 scale): 0
Corn [2]; [10]
  Corn plant response rating: 40
barnyardgrass; 125 g ai/ha
  Barnyardgrass plant response rating: 10
barnyardgrass; 500 g ai/ha
  Plant response rating, Barnyardgrass: 90
Giant foxtail [3]; 125 g ai/ha
  Foxtail, Giant plant response rating: 50
Giant foxtail [3]; 500 g ai/ha
  Plant response rating, Foxtail, Giant: 90
Morningglory [4]; 125 g ai/ha
  Morningglory plant response rating: 80
Morningglory [4]; 500 g ai/ha
  Plant response rating, Morningglory: 100
Corn [5]; 125 g ai/ha
  Corn plant response rating: 50
Corn [5]; 500 g ai/ha
  Plant response rating, Corn: 10
Heteranthera limosa
  Plant response rating, Ducksalad: 75
Corn [6]; [11]
  Plant response rating (0 to 100), Corn: 0
Corn [6]; [12]
  Corn plant response rating: 0
Corn [6]; [13]
  Plant response rating, Corn: 5
Corn [6]; [14]
  Plant response rating, Corn: 0
Giant foxtail [7]; [11]
  Plant response rating (0 to 100), Foxtail, Giant: 0
Giant foxtail [7]; [12]
  Foxtail, Giant plant response rating: 0
Giant foxtail [7]; [13]
  Plant response rating, Foxtail, Giant: 5
Giant foxtail [7]; [14]
  Plant response rating, Foxtail, Giant: 0
johnsongrass; [11]
  Plant response rating (0 to 100), Johnsongrass: 5
johnsongrass; [12]
  Johnsongrass plant response rating: 0
johnsongrass; [13]
  Plant response rating, Johnsongrass: 10
johnsongrass; [14]
  Plant response rating, Johnsongrass: 5
Morningglory [8]; [11]
  Plant response rating (0 to 100), Morningglory: 5
Morningglory [8]; [12]
  Morningglory plant response rating: 10
Morningglory [8]; [13]
  Plant response rating, Morningglory: 35
Morningglory [8]; [14]
  Plant response rating, Morningglory: 25
pigweed; [11]
  Plant response rating (0 to 100), Pigweed: 25
pigweed; [12]
  Pigweed plant response rating: 50
pigweed; [13]
  Plant response rating, Pigweed: 55
pigweed; [14]
  Plant response rating, Pigweed: 60
Oilseed rape; [11]
  Plant response rating (0 to 100), Oilseed Rape: 40
Oilseed rape; [12]
  Oilseed Rape plant response rating: 60
Oilseed rape; [13]
  Plant response rating, Oilseed Rape: 85
Oilseed rape; [14]
  Plant response rating, Oilseed Rape: 60
waterhemp; [11]
  Plant response rating (0 to 100), Waterhemp: 15
waterhemp; [12]
  Waterhemp plant response rating: 45
waterhemp; [13]
  Plant response rating, Waterhemp: 75
waterhemp; [14]
  Plant response rating, Waterhemp: 60
Velvetleaf [9]; [11]
  Plant response rating (0 to 100), Velvetleaf: 15
Velvetleaf [9]; [12]
  Velvetleaf plant response rating: 55
Velvetleaf [9]; [13]
  Plant response rating, Velvetleaf: 70
Velvetleaf [9]; [14]
  Plant response rating, Velvetleaf: 60

— patent publication US9695155B2, “Herbicidal substituted pyrimidinyloxy benzene compounds” (E. I. DU PONT DE NEMOURS AND COMPANY, priority 2013, dated 2017)
